From patent publication US6569902B2, “Nitrone inhibition of cancer development” (Oklahoma Medical Research Foundation, priority 2000, dated 2003)
Read-outs that look alike come from different tables or passages of the source.

Key:
[1] = test system: livers of male Wistar rats fed the CDAA diet; assay: Example 2: histological liver injury (fibrosis, fatty liver); type: in vivo, rat; conditions: high dose 0.090%, CDAA diet 16 weeks
Source text: Animal experiment. After acclimation, rats were divided equally into 22 groups consisting of 5 animals each. Animals in group 1 received the CDAA diet alone. […] Groups 5-7, 8-10, 11-13 and 14-16 received the CDAA diet containing the low, middle, and high doses of 4-OHPBN, 3-OHPBN, 2-OHPBN and 2-SPBN, respectively. Group 17 received the CSAA diet alone. […] All animals were sacrificed by exsanguination under light ether anesthesia 16 weeks after commencement, and the livers excised. Slices 5-mm-thick were taken from the left lateral, median and right lateral lobes of the livers, fixed in 10% neutrally-buffered formalin for 24 hours and then embedded in paraffin. Five serial 4-μm-thick sections were prepared from each fixed liver slice and used for histological and immunohistochemical assessment as described below. The remaining portions of the livers were immediately frozen under liquid nitrogen and stored at −80° C. until use.
Histological and immunohistochemical assessments. Histological assessment was performed using sections routinely stained with hematoxylin/eosin and Masson's trichrome procedures. Gradation of fibrosis was quantitatively evaluated in groups 1, 4, 7, 10, 13, 16 and 17 by calculating the percent area occupied by collagen fiber stained blue by Masson's trichrome method using an IPAP image analyzing system (Sumika Technoservice Corp., City of Osaka, Osaka, Japan). GST-P-positive lesions were visualized immunohistochemically. Lesions consisting of more than 6 cells were quantified using the IPAP system as described elsewhere (Kishida et al. 2000). The amount of apoptosis and the cellular proliferative activity were determined in groups 1, 4, 7, 10, 13, 16 and 17, using the double staining techniques by combination of the GST-P immunohistochemistry as above with the in situ terminal deoxynucleotidyl transferase-mediated dUTP-biotin nick end-labeling method (Gold et al. 1994) and the enhanced polymer one-step staining method for proliferating cell nuclear antigen (Tsutsumi et al. 1995), respectively. Numbers of apoptotic and proliferating hepatocytes among the 1000-5000 hepatocytes in GST-P-positive lesions and 5000 hepatocytes in surrounding tissue were counted under light microscopy to obtain percentages that are hereafter referred as apoptotic and proliferative indices, respectively.
Statistics. Inter-group differences in quantitative data for multiple groups were recognized to be significant, when p values smaller than 0.05 were obtained by the Dunnett multiple comparison test employed after one-way analysis of variance to determine the variation among the group means followed by the Bartlett's test to determine the homogeniety of variance.

[2] = test system: rats fed the CDAA diet; conditions: cited from earlier work; for size of neoplastic nodules: 12 weeks, CDAA only 1.92; for nodule number: CDAA only 190

CC(C)(C)[N+]([O-])=Cc1ccccc1 [PBN, phenyl N-tert-butyl nitrone]
grade of fibrosis versus group 1 [1]: significantly lower | size of neoplastic nodules ([2]; CDAA plus PBN 6 mg/kg-day): 0.33 mm^3 | size of neoplastic nodules ([2]; CDAA plus PBN 30 mg/kg-day): 0.17 mm^3 | size of neoplastic nodules ([2]; CDAA plus PBN 60 mg/kg-day): 0.10 mm^3 | nodule number ([2]; PBN 6 mg/kg-day): 170 per mm^3 | nodule number ([2]; PBN 30 mg/kg-day): 149 per mm^3 | nodule number ([2]; PBN 60 mg/kg-day): 142 per mm^3 | reduction of the amount of PGE2 in the CD-livers ([2]; highest dose): about 50% | decrease of nodule size ([2]; highest level of PBN): 95% | 8-OHdG content (marker of DNA oxidation) in the CD-livers ([2]; increasing concentrations of PBN): reduced | decrease of nodule size ([2]; lowest level of PBN (6 mg/kg)): 83% | decrease of nodule number ([2]; lowest level of PBN): 11% | effect on COX-II expression ([2]; mRNA or protein level): no effect | connective tissue proliferation ([2]; rat, in vivo): significantly reduced
